# Patent publication US20080200376A1, “Compositions and Methods For the Treatment Of Obesity and Sexual Dysfunction” (priority 2004, published 2008)
# Marks after values point to notes of the source that are not given here.
# Columns and labels:
# hMC1bR [1] = molecular target: T1, hMC1bR (Homo sapiens, UniProt Q01726); assay: Melanocortin receptor membrane binding assay (125I-NDP-alpha-MSH)
# Protocol: (§1) The membrane binding assay was used to identify competitive inhibitors of ^125I-NDP-alpha-MSH binding to cloned human MCRs expressed in mouse L- or Chinese hamster ovary (CHO)-cells.
# (§2) Cell lines expressing melanocortin receptors were grown in T-180 flasks containing selective medium of the composition: 1 L Dulbecco's modified Eagles Medium (DMEM) with 4.5 g […], 25 mM Hepes, without sodium pyruvate, (Gibco/BR1); 100 ml 10% heat-inactivated fetal bovine serum (Sigma); 10 mL 10,000 unit/mL penicillin & 10,000 μg/mL streptomycin (Gibco/BR1); 10 ml 200 mM L-glutamine (Gibco/BR1); 1 mg/mL geneticin (G418) (Gibco/BR1). The cells were grown at 37° C. with CO2 and humidity control until the desired cell density and cell number was obtained.
# (§3) The medium was poured off and 10 mls/T-180 flask of enzyme-free dissociation media (Specialty Media Inc.) was added. The cells were incubated at 37° C. for 10 min or until cells sloughed off when flask was banged against hand.
# (§4) The cells were harvested into 200 mL centrifuge tubes and spun at 1000 rpm, 4° C., for 10 min. The supernatant was discarded and the cells were resuspended in 5 mls/monolayer membrane preparation buffer having the composition: 10 mM Tris pH 7.2-7.4; 4 μg/mL Leupeptin (Sigma); 10 μM Phosphoramidon (Boehringer Mannheim); 40 μg/mL Bacitracin (Sigma); 5 μg/mL Aprotinin (Sigma); 10 mM Pefabloc (Boehringer Mannheim). The cells were homogenized with motor-driven dounce (Talboy setting 40), using 10 strokes and the homogenate centrifuged at 6,000 rpm, 4° C., for 15 min.
# (§5) The pellets were resuspended in 0.2 mls/monolayer membrane prep buffer and aliquots were placed in tubes ([…]) and quick frozen in liquid nitrogen and then stored at −80° C.
# (§6) Test compounds or unlabelled NDP-α-MSH was added to 100 μL of membrane binding buffer to a final concentration of 1 μM. The membrane binding buffer had the composition: 50 mM Tris pH 7.2; 2 mM CaCl2; 1 mM MgCl2; 5 mM KCl; 0.2% BSA; 4 μg/mL Leupeptin (SIGMA); 10 μM Phosphoramidon (Boehringer Mannheim); 40 μg/mL Bacitracin (SIGMA); 5 μg/mL Aprotinin (SIGMA); and 10 mM Pefabloc (Boehringer Mannheim). One hundred μL of membrane binding buffer containing 10-40 μg membrane protein was added, followed by […]. The resulting mixture was vortexed briefly and incubated for 90-120 min at room temp while shaking.
# (§7) The mixture was filtered with Packard Microplate 196 filter apparatus using Packard Unifilter 96-well GF/C filter with 0.1% polyethyleneimine (Sigma). The filter was washed (5 times with a total of 10 mL per well) with room temperature of filter wash having the composition: 50 mM Tris-HCl pH 7.2 and 20 mM NaCl. […] The top was sealed and the radioactivity quantitated in a Packard Topcount Microplate Scintillation counter.
# hMC4R [2] = molecular target: T2, hMC4R (Homo sapiens, UniProt P32245); assay: as above
# T2 construct: expressed in transfected cells; host or cells: CHO-, L- or other eukaryotic cells
# T2 sequence (P32245 whole entry): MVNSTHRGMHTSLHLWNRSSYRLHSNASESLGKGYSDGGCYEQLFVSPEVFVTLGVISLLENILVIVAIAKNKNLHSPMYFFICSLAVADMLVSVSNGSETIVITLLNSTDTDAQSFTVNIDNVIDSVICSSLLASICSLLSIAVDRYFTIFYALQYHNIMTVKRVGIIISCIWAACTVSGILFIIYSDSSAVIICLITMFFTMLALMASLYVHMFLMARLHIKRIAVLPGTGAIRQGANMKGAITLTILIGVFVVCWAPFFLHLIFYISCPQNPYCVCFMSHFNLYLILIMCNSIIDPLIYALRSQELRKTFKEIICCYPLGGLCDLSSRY
# Protocol: as §1, §2, §3, §4, §5, §6, §7
# hMC5R [3] = molecular target: T3, hMC5R (Homo sapiens, UniProt P33032); assay: as above
# T3 construct: expressed in transfected cells; host or cells: CHO-, L- or other eukaryotic cells
# T3 sequence (P33032 whole entry): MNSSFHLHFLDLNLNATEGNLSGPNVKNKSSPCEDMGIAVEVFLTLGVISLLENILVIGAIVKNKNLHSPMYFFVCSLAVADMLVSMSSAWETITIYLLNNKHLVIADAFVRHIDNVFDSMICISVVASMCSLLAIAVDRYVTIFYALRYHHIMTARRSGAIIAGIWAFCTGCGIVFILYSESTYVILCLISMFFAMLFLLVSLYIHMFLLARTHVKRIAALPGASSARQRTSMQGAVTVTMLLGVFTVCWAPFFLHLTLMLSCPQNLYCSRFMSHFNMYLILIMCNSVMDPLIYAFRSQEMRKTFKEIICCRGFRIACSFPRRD
# Protocol: as §1, §2, §3, §4, §5, §6, §7
# hMC3R [4] = molecular target: T4, hMC3R (Homo sapiens, UniProt P41968); assay: as above
# T4 construct: expressed in transfected cells; host or cells: CHO-, L- or other eukaryotic cells
# T4 sequence (P41968 whole entry): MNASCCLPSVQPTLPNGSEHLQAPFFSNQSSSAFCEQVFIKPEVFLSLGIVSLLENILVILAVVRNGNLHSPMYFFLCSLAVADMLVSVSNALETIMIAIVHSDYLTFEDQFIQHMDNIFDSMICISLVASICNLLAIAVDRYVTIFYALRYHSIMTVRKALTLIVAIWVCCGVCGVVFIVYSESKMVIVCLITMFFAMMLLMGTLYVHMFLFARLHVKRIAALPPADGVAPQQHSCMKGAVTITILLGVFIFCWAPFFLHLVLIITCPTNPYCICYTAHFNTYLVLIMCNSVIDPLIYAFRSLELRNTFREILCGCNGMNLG
# Protocol: The cells were grown at 37° C. with CO2 and humidity control until the desired cell density and cell number was obtained.
# hMC1bR [5] = molecular target: T1, hMC1bR; assay: cAMP functional assay (agonist); assay type: cell-based
# Protocol: (§8) Cells (for example, CHO— or L-cells or other eukaryotic cells) expressing a human melanocortin receptor (see e.g. Yang-YK; Ollmann-MM; Wilson-BD; Dickinson-C; Yamada-T; Barsh-GS; Gantz-I; Mol-Endocrinol. 1997 March; 11(3): 274-80) were dissociated from tissue culture flasks by rinsing with Ca and Mg free phosphate buffered saline (14190-136, Life Technologies, Gaithersburg, Md.) and detached following 5 min incubation at 37° C. with enzyme free dissociation buffer (S-014-B, Specialty Media, Lavellette, N.J.). Cells were collected by centrifugation and resuspended in Earle's Balanced Salt Solution (14015-069, Life Technologies, Gaithersburg, Md.) with additions of 10 mM HEPES pH 7.5, 5 mM MgCl2, 1 mM glutamine and 1 mg/ml bovine serum albumin. Cells were counted and diluted to 1 to 5×10^6/mL. The phosphodiesterase inhibitor 3-isobutyl-1-methylxanthine was added to cells to 0.6 mM.
# (§9) Agonist Assay: Test compounds were diluted in dimethylsulfoxide (DMSO) (10^−5 to 10^−10 M) and 0.1 volume of compound solution was added to 0.9 volumes of cell suspension; the final DMSO concentration was […]. After room temperature incubation for 45 min, cells were lysed by incubation at 100° C. for 5 min to release accumulated cAMP.
# (§10) cAMP was measured in an aliquot of the cell lysate with the Amersham (Arlington Heights, Ill.)
# (§11) cAMP detection assay (RPA556). The amount of cAMP production which resulted from an unknown compound was compared to that amount of cAMP produced in response to alpha-MSH which was defined as a 100% agonist. The EC50 is defined as the compound concentration which results in half maximal stimulation, when compared to its own maximal level of stimulation.
# hMC2R = molecular target: T5, hMC2R (Homo sapiens, UniProt Q01718); assay: cAMP functional assay (agonist); assay type: cell-based
# T5 construct: expressed in transfected cells; host or cells: CHO-, L- or other eukaryotic cells
# T5 sequence (Q01718 whole entry): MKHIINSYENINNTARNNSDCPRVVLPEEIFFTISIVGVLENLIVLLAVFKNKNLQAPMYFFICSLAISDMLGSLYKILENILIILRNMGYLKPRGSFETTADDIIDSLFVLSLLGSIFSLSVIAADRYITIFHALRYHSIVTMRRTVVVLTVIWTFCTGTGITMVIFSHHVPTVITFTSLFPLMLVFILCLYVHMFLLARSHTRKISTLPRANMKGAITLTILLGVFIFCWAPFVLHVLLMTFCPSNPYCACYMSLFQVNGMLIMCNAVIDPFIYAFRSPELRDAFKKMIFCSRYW
# T5 sequence (Q8TCY5 whole entry partner): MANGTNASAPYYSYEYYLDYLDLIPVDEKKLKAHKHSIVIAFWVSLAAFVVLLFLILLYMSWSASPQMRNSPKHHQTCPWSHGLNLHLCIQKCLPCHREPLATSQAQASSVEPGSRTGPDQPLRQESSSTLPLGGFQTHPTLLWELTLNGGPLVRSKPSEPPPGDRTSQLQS
# Protocol: as §8, §9, §10, §11
# hMC4R [6] = molecular target: T2, hMC4R; assay: cAMP functional assay (agonist); assay type: cell-based
# Protocol: as §8, §9, §10, §11
# hMC3R [7] = molecular target: T4, hMC3R; assay: cAMP functional assay (agonist); assay type: cell-based
# Protocol: as §8, §9, §10
# hMC5R [8] = molecular target: T3, hMC5R; assay: cAMP functional assay (agonist); assay type: cell-based
# Protocol: as §8, §9, §10
# ferrets [9] = assay: MC4R associated emesis in ferrets, Compound A and Compound B (Table 1); assay type: in vivo, ferret; conditions: Compound A 60 mg/kg orally; for % Emesis: ferrets; for # of Ferrets: ferrets with emesis/dosed
# Protocol: (§12) Food intake (FI) was monitored at 1, 2, 4, and 24, hours after dosing. Body weight (BWT) was measured at the time of dosing and at 24 hours. Any incidence of emesis or abnormal behavior by subjects was recorded. Two studies were combined to generate the data.
# ferrets [10] = assay: MC4R associated emesis in ferrets, Compound A and Compound F (Table 2); assay type: in vivo, ferret; conditions: Compound A (10 mg/kg); for % Emesis: ferrets; for # of Ferrets: ferrets with emesis/dosed
# Protocol: FIG. 3. […] All food intake data were analyzed by two-tailed T-TEST.
# as §12
# T1 sequence (Q01726 whole entry): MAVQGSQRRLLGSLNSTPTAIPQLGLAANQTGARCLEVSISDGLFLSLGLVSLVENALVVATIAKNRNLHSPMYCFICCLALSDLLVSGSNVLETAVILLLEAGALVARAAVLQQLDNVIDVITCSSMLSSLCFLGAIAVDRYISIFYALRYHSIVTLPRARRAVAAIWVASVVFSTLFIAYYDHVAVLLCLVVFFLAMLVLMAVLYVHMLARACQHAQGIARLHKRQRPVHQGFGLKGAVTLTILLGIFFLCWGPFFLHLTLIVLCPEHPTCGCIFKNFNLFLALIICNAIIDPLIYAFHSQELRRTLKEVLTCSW
compound,measurement,setting,value
CC[C@H](NC(C)=O)c1cc(Cl)ccc1C1CCN(C(=O)[C@@H]2CN(C(C)(C)C)C[C@H]2c2ccc(F)cc2F)CC1 [Compound A],IC50,hMC1bR [1],5.6 µM
same,Selectivity Binding IC50 1R/4R,hMC1bR [1]; IC50 hMC1bR / IC50 hMC4R,127.27
same,IC50,hMC4R [2],44 nM
same,IC50,hMC5R [3],1600 nM
same,IC50,hMC3R [4],7.2 µM
same,EC50,hMC1bR [5],1700 nM
same,Selectivity cAMP EC50 1R/4R,hMC1bR [5]; EC50 hMC1bR / EC50 hMC4R,121.43
same,EC50,hMC2R,> 10 µM
same,EC50,hMC4R [6],14 nM
same,EC50,hMC3R [7],920 nM
same,EC50,hMC5R [8],1400 nM
same,% Emesis,ferrets [9]; 1 hour,31%
same,% Emesis,ferrets [9]; 2 hours,8%
same,% Emesis,ferrets [9]; 4 hours,69%
same,% Emesis,"ferrets [9]; Total, 60 mg/kg",77%
same,# of Ferrets,ferrets [9]; 1 hour,4/13
same,# of Ferrets,ferrets [9]; 2 hours,1/13
same,# of Ferrets,ferrets [9]; 4 hours,9/13******
same,# of Ferrets,ferrets [9]; Total,10/13****
same,% Emesis,ferrets [10]; 1 hour,40%
same,% Emesis,ferrets [10]; 2 hours,40%
same,% Emesis,ferrets [10]; 4 hours,60%
same,% Emesis,ferrets [10]; total,100%
same,# of Ferrets,ferrets [10]; 1 hour,2/5**
same,# of Ferrets,ferrets [10]; 2 hours,2/5
same,# of Ferrets,ferrets [10]; 4 hours,5/5***
same,# of Ferrets,ferrets [10]; total,5/5*****
